From publication PMC2580030 (PLoS ONE, 2008)

Target: T1, HLA-DR1 (Homo sapiens, UniProt P01903+P01911, A100R/D57E/F55L/F60I/F76Y/I96L/L162R/M171V/P40L/Q125E/R42F/V115G/Y59C)
T1 construct: made in house; host or cells: stably transfected Drosophila S2 insect cell lines (DR1 and DM separately)
Assay type: binding

PVSKMRMATPLLMQA [CLIP, residues 87–101 of the CLIP peptide]
largest CLIP/DR1 complex dissociation measured: ~55%
t 1/2 of CLIP dissociation from DR1: approximately 80 min
